Laboratory results from patent US10961187B2, “Substituted N-acetyl-L-cysteine derivatives and related compounds” (Promentis Pharmaceuticals, Inc., priority 2013, dated 2021).

Assays:
[1] = target: T1, System xc− (Homo sapiens, UniProt Q9UPY5); assay: 14C-cystine uptake in human glial cells from brain astrocytoma (1321N1); assay type: cell-based; details: 1321N1 cells
T1 construct: in vitro culture system of human glial cells from brain astrocytoma (1321N1); endogenous in cells; host or cells: 1321N1 human astrocytoma cells
T1 sequence (Q9UPY5 1-501): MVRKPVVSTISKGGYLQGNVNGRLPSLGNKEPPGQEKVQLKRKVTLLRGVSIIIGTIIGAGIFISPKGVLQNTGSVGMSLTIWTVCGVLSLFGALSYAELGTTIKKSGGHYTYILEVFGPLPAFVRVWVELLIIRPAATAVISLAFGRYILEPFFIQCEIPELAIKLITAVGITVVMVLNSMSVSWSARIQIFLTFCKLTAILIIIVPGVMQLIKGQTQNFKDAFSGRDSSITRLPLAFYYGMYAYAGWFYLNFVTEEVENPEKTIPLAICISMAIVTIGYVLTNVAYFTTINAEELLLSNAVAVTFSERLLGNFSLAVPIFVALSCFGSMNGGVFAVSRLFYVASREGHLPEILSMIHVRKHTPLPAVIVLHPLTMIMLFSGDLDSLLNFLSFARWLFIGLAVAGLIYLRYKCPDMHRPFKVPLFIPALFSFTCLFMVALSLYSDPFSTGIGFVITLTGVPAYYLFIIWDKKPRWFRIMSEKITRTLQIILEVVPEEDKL
T1 sequence (P08195 1-529 partner): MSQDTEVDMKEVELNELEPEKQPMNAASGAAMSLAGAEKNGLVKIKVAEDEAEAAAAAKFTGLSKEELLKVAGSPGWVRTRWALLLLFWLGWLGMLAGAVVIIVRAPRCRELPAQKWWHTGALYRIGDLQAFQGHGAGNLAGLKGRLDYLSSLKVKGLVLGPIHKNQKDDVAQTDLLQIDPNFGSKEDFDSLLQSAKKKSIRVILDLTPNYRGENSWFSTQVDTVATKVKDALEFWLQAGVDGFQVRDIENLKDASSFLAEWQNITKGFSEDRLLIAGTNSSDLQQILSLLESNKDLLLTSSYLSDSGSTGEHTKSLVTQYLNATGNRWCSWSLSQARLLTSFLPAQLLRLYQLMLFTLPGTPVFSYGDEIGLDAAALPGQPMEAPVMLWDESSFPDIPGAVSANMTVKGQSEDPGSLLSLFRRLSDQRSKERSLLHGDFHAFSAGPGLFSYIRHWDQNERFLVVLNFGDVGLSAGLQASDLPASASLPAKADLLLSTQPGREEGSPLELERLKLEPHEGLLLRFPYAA
Protocol: The goal of these experiments was to determine ^14C-cystine uptake.
The screening of compounds was performed using an in vitro culture system of human glial cells from brain astrocytoma (1321N1). Cells were plated on 24 well plates coated with poly-D-lysine and laminin and grown in a balanced salt solution supplemented with 5% heat inactivated horse serum, 5% fetal bovine serum, 2 mM glutamine and glucose (total 21 mM). Cultures were maintained in humidified 5% CO2 incubators at 37° C. for 3-4 days before experiments were performed, at this time the cultures has formed a single confluent layer. For experiments, cultures were washed 3 times into a Na-free HEPES and HCO3^− buffered balanced salt solution. After 1 hour, the test compounds are added. Following a three hour incubation, ^14C-cystine (0.025 mCi/mL) was then added for 20 minutes. Following the ^14C-cystine exposure, cultures were washed 3 times with ice cold HEPES buffered saline solution and dissolved in 250 μl sodium dodecyl sulfate (0.1%). An aliquot (200 μl) was removed and added to scintillation fluid for counting. Values were normalized to ^14C-cystine uptake in untreated controls on the same experimental plate.

[2] = tested on: Rats; assay: Elevated-plus maze; assay type: in vivo; details: for time spent on the open arms: one hour prior to testing, five minute session
Protocol: Rats were tested in a standard elevated plus maze; testing occurred in a dimly illuminated room using only two lights mounted over the maze. Animals were allowed to habituate to the room for at least one hour prior to treatment. One hour prior to testing, rats received a compound of the present invention (0-30 mg/kg, P.O.). For testing, the rat was placed in the elevated plus maze for five minutes, alternating the starting position between facing an open arm and facing a closed arm. The session was recorded and an observer blind to treatment recorded the number of explorations, entries and time spent in the open arm. Explorations were defined as the rat placing two feet into an open arm without fully entering said arm. Entries were defined as the rat placing all four feet in an open arm. Time of entry in the open arm was recorded from the time the rat placed four feet in the open arm until two of the rats' feet entered the open square.

[3] = target: T1, System xc−; assay: 3H-glutamate release from human glial cells from brain astrocytoma (1321N1); assay type: cell-based; details: at 3 hours, 1321N1 cells
Protocol: This assay also uses the cell culture system of human glial cells from brain astrocytoma (1321N1) described above. Initially, cells are washed with HBBSS, and ^3H-glutamate is added (PerkinElmer: 1 mCi/mL stock solution is diluted (30 μL+500 HBBSS) and 10 μL of diluted radiolabel is added to each well). Following a 1 hour incubation to load the cells with the labeled glutamate, the cells are washed again with HBBSS, and the drug is added. At 30, 90, and 180 minutes, 50 μL of extracellular media is sampled from each well and is measured using a Beckman LS 6500 scintillation counter.

[4] = tested on: Rats; assay: Prepulse inhibition experiment (MK-801-induced deficit); assay type: in vivo; details: MK-801 0.1 mg/kg SC, MK-801 + vehicle control about 16%
Protocol: Rats were placed on a platform in a sound attenuating chamber (10.875″×14″×19.5″; Hamilton Kinder, CA) that rested on a motion sensing plate. During all sessions, the background noise was held constant at 60 dB. A matching session was conducted to determine the magnitude of the average startle response for each rat. This session consisted of a five minute habituation period followed by 20 trials; 17 trials involved the presentation of a single auditory stimulus (pulse stimulus; 50 dB above the background noise) and three trials in which a pre-pulse stimulus (12 db above background) was presented 100 ms before the pulse auditory stimulus. Rats were then assigned into the various treatment groups so that the magnitude of the startle response was equivalent across all groups. Two days later, a testing session was conducted to assess sensorimotor gating. One hour prior to testing, rats received a prodrug (0-100 mg/kg, P.O.) and 55 minutes later acute MK-801 maleate (0.1 mg/kg, SC). The testing session consisted of a five minute habituation period, after which rats received 58 discrete trials; 26 trials during which the pulse stimulus (50 db above background) was presented alone, eight trials each in which the pulse stimulus was preceded by a prepulse stimulus (5, 10, or 15 db above background) and eight background trials with no pulse (No stimulus; background noise only). The first six pulse alone trials were not included in the average startle stimulus to achieve a relatively stable level of startle reactivity. All startle responses were normalized to vehicle control, and the percent of prepulse inhibition was determined as 100-(average prepulse startle response/average startle stimulus alone)*100.

[5] = 10 mg/kg P.O. one hour prior to testing

Compound	inhibition at 1000 µM ([1]; 1000 μM, three hour incubation, read-out: decrease (inhibition) in 14C-cystine uptake)	increase of time spent on the open arm ([2]; 10 or 30 mg/kg PO)	time spent on the open arms ([2]; 10 or 30 mg/kg PO)	increase in 3H-glutamate release ([3]; 300 μM)	% prepulse inhibition [4, 5]	decrease in 14C-cystine uptake ([1]; over the concentrations tested, dose-dependent)	increase of time on the open arms over control ([2]; 10 mg/kg PO)	time spent on the open arms ([2]; 10 mg/kg PO)	increase in 3H-glutamate release ([3]; 100 μM)	% prepulse inhibition ([4]; 3 mg/kg P.O. one hour prior to testing)	decrease in 14C-cystine uptake ([1]; 100 μM (most effective concentration), average of three experiments)
CC(=O)N[C@@H](CSC(=O)c1ccc(C)cc1)C(=O)O [Pro-2023, (2R)-2-Acetylamino-3-(4-methyl-benzoylsulfanyl)-propionic acid]	~45%	about 100%	around 27 seconds	approximately 135%	about 30%	–	–	–	–	–	–
CCOC(=O)[C@H](CSC(=O)C1CSC(=O)N1)NC(C)=O (stereo partly drawn) [Pro-4047, Ethyl (2R)-2-acetamido-3-(2-oxo-1,3-thiazolidine-4-carbonylsulfanyl) propanoate]	–	–	–	–	–	20-60%	not a significant increase over control	around 22 seconds	approximately 40%	about 23%	–
CCOC(=O)[C@H](CSC(=O)c1ccc(C)cc1)NC(C)=O [Pro-4051, Ethyl (2R)-2-acetamido-3-(4-methylbenzoylsulfanyl)propanoate]	–	–	–	approximately 100%	about 46%	–	~150%	around 48 seconds	–	–	approximately 28%
